Measured values: US11352322B2, “Cyclopropyl-amide compounds as dual LSD1/HDAC inhibitors” (Jubilant Epicore LLC, priority 2016, dated 2022)
Counter-ions that a name gives are not always drawn. Like-named read-outs stand apart in the source and are kept apart here.

What was measured:
[1] = Metabolic stability in liver microsomes, MLM; conditions: 1 μM, NADPH
Method: (§1) The microsomal suspension was prepared by adding liver microsomes to 100 mM potassium phosphate buffer (pH7.4) to give a final protein concentration of 0.5 mg/mL. The stock solution of NCE (10 mM in DMSO) was added to the microsomes to provide a final concentration of 1 μM. […] Samples were vortexed and centrifuged at 5,000 rpm for 10 min to remove proteins. Supernatant were analyzed on LC-MS/MS.

[2] = Metabolic stability in liver microsomes, HLM; conditions: 1 μM, NADPH
Method: as §1

[3] = target: LSD1 (Homo sapiens (Human), UniProt O60341); test: TR-FRET Assay for LSD1
Method: TR-FRET Assay for LSD1 (Perkin Elmer)
Tranylcypromine (TCP), LSD1 inhibitor was procured from Selleckchem. […] Stop Solution containing 300 μM tranylcypromine in 1× LANCE Detection Buffer was added to the wells and incubated for 5 min at RT. Then, Detection mix containing 2 nM Eu-Ab and 50 nM ULight-Streptavidin in 1× LANCE Detection Buffer was prepared and added to the reaction mix. This mixture was incubated for 1 hour at room temperature.

[4] = target: HDAC6 human recombinant enzyme (Homo sapiens (Human), UniProt Q9UBN7); test: Histone Deacetylase Assay (BPS Biosciences), HDAC6; format: biochemical
Source text: Histone Deacetylase Assay (BPS Biosciences)
Histone deacetylase assay was done as per manufacturer's instructions.

[5] = test system: MM1S; test: Anticancer activity: Alamar Blue assay, MM1S; format: cell-based; conditions: Homo sapiens, MM1.S, read-out: MM1S EC50

HDAC6 human recombinant enzyme, sequence (Q9UBN7 whole entry): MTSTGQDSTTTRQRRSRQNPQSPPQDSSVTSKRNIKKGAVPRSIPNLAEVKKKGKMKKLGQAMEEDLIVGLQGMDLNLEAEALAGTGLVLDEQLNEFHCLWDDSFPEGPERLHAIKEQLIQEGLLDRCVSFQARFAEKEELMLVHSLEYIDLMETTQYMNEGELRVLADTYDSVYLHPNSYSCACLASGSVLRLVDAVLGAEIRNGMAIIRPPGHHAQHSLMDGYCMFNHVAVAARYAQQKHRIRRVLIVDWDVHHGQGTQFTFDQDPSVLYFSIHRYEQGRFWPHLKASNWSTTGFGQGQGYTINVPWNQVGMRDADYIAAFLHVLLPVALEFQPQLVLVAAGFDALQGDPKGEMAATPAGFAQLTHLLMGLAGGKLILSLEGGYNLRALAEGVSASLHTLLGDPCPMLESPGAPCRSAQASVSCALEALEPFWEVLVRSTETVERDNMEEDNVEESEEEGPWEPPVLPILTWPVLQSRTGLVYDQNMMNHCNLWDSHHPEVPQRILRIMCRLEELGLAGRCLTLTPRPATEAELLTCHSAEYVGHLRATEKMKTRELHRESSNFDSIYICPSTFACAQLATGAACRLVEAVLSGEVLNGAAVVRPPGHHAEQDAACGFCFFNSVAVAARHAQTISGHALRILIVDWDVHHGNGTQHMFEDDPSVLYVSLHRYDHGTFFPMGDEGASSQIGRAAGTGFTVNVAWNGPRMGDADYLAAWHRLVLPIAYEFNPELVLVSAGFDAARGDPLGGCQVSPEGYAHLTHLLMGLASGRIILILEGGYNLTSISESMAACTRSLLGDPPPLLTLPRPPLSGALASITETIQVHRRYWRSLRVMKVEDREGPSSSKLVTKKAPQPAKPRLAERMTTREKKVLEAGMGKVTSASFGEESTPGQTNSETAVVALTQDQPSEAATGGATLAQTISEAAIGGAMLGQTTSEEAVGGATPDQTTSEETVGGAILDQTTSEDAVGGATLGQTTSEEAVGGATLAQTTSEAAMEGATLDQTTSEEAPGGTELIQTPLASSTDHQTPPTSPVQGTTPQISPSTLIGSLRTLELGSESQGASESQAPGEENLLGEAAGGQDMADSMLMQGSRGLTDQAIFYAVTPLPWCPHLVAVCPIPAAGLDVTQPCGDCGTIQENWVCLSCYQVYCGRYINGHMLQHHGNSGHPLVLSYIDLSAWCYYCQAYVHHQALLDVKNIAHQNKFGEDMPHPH

Row | EC50 ([5]; MM1S cells) [nM] | IC50 [3] [nM] | Structure (SMILES) | Metabolic stability MLM % remaining in 30 min [1] | Metabolic stability HLM % remaining in 30 min [2] | IC50 ([3]; read-out: LSD1 IC50) [nM] | IC50 [4] [nM] | EC50 [5] [nM]
1 |  |  | O=C(NO)c1cccc(CNC2CC2c2ccccc2)c1 (stereo not drawn) [Example 27, N-hydroxy-3-(((2-phenylcyclopropyl)amino)methyl)benzamide TFA] | 51% | 75% | 16 | > 1000 | 
2 | 94 |  | CC(NC1CC1c1ccccc1)[C@H]1CC[C@H](C(=O)NO)CC1 (stereo partly drawn) [Example 34, (1S,4R)—N-hydroxy-4-((1S)-1-((2-phenylcyclopropyl)amino)ethyl)cyclohexanecarboxamide TFA Salt] | 79% | 90% | 31 | > 1000 | 
3 |  |  | O=C(NO)c1ccc(CCCN2CCC(NC3CC3c3ccccc3)CC2)cc1 (stereo not drawn) [Example 44, N-hydroxy-4-(3-(4-((2-phenylcyclopropyl)amino)piperidin-1-yl)propyl)benzamide TFA Salt] | 55% | 71% | 13 | 65 | 45
4 | 25 |  | O=C(NO)c1ccc(CCCN2CC(CNC3CC3c3ccc(F)cc3)C2)cc1 (stereo not drawn) [Example 48, 4-(3-(3-(((2-(4-fluorophenyl)cyclopropyl)amino)methyl)azetidin-1-yl)propyl)-N-hydroxy benzamide TFA Salt] | < 5% | 85% | 29 | 184 | 
5 |  |  | CN(C)CCNC(=O)c1ccc(C2CC2NCC2CCN(CCCc3ccc(C(=O)NO)cc3)CC2)cc1 (stereo not drawn) [Example 55, N-(2-(dimethylamino)ethyl)-4-(2-(((1-(3-(4-(hydroxycarbamoyl)phenyl)propyl)piperidin-4-yl)methyl)amino)cyclopropyl)benzamide TFA Salt] | 36% | 40% | 22 | 130 | 
6 |  |  | O=C(NO)c1ccc(CCCN2CC(CNC3CC3c3ccc(-c4ccc(F)cc4)cc3)C2)cc1 (stereo not drawn) [Example 58, 4-(3-(3-(((2-(4′-fluoro-[1,1′-biphenyl]-4-yl)cyclopropyl)amino)methyl)azetidin-1-yl)propyl)-N-hydroxybenzamide TFA Salt] | 91% | 85% | 25 | 43 | 15
7 |  |  | Cn1ccc(-c2ccc(C3CC3NCC3CCN(CCCc4ccc(C(=O)NO)cc4)CC3)cc2)cc1=O (stereo not drawn) [Example 60, N-hydroxy-4-(3-(4-(((2-(4-(1-methyl-2-oxo-1,2-dihydropyridin-4-yl)phenyl)cyclopropyl)amino)methyl)piperidin-1-yl)propyl)benzamide TFA Salt] | 72% | 73% | 21 | 46 | 
8 | 7 |  | Cn1cc(-c2ccc(C3CC3NCC3CCN(CCCc4ccc(C(=O)NO)cc4)CC3)cc2)cn1 (stereo not drawn) [Example 62, N-hydroxy-4-(3-(4-(((2-(4-(1-methyl-1H-pyrazol-4-yl)phenyl)cyclopropyl)amino)methyl)piperidin-1-yl)propyl) benzamide TFA Salt] | 66% | 77% | 43 | 66 | 
9 | 11 | 59 | Cc1noc(C)c1-c1ccc(C2CC2NCC2CCN(CCCc3ccc(C(=O)NO)cc3)CC2)cc1.O=C(O)C(F)(F)F (stereo not drawn) [Example 64, 4-(3-(4-(((2-(4-(3,5-dimethylisoxazol-4-yl)phenyl)cyclopropyl)amino)methyl)piperidin-1-yl)propyl)-N-hydroxybenzamide TFA Salt] | 77% | 82% |  | 58 | 
10 |  |  | O=C(NO)c1ccc(CCCN2CCC(CNC3CC3c3ccc(-c4ccc(C(F)(F)F)nc4)cc3)CC2)cc1 (stereo not drawn) [Example 66, N-hydroxy-4-(3-(4-(((2-(4-(6-(trifluoromethyl)pyridin-3-yl)phenyl)cyclopropyl)amino)methyl)piperidin-1-yl)propyl)benzamide TFA Salt] | 85% | 79% | 19 | 100 | 
11 |  |  | O=C(NO)c1ccc(CN2CCc3ccc(CNC4CC4c4ccc(F)cc4)cc3C2)cc1 (stereo not drawn) [Example 79, 4-((7-(((2-(4-fluorophenyl)cyclopropyl)amino)methyl)-3,4-dihydroisoquinolin-2(1H)-yl)methyl)-N-hydroxybenzamide TFA Salt] | 6% | 18% | 79 | 24 | 39
12 |  |  | O=C(NO)c1ccc(CN2CCn3cc(CNC4CC4c4ccc(F)cc4)nc3C2)cc1 (stereo not drawn) [Example 80, 4-((2-(((2-(4-fluorophenyl)cyclopropyl)amino)methyl)-5,6-dihydroimidazo[1,2-a]pyrazin-7(8H)-yl)methyl)-N-hydroxybenzamide TFA Salt] | 87% | 82% | 1500 | 68 | 331
13 | 22 |  | CN1C(=O)C(C)(C)c2cc(C3CC3NCC3CCN(CCCc4ccc(C(=O)NO)cc4)CC3)ccc21 (stereo not drawn) [Example 81, N-hydroxy-4-(3-(4(((2-(1,3,3,-trimethyl-2-oxoindoline-5-yl)cyclopropyl)amino)methyl)piperidine-1-yl)propyl)benzamide TFA Salt] | >95/>95% | >95/>95% | 394 | 125 | 
14 |  |  | O=C(NO)c1ccc(CCC(=O)N2CCC(CNC3CC3c3ccccc3)CC2)cc1 (stereo not drawn) [Example 82, N-hydroxy-4-(3-oxo-3-(4-(((2-phenylcyclopropyl)amino)methyl)piperidin-1-yl)propyl)benzamide TFA Salt] | 72% | 77% | 94 | 35 | 619
15 |  |  | O=C(NO)c1ccc(C(=O)NCCN2CCC(CNC3CC3c3ccc(F)c(F)c3)CC2)cc1 (stereo not drawn) [Example 90, N1-(2-(4-(((2-(3,4-difluorophenyl)cyclopropyl)amino)methyl)piperidin-1-yl)ethyl)-N4-hydroxyterephthalamide TFA Salt] | 93% | 80% | 21 | 170 | 339
16 |  |  | O=C(NO)c1ccc(OCCNC2CC2c2ccccc2)cc1 (stereo not drawn) [Example 95, N-hydroxy-4-(2-((2-phenylcyclopropyl)amino)ethoxy)benzamide TFA Salt] | 55% | 75% | 33 | 350 | 144
17 |  |  | O=C(NO)c1ccc(OCCN2CCC(CNC3CC3c3ccccc3)CC2)cc1 (stereo not drawn) [Example 99, N-hydroxy-4-(2-(4-(((2-phenylcyclopropyl)amino)methyl)piperidin-1-yl)ethoxy)benzamide TFA Salt] | 76% | 63% | 4 | 51 | 27
18 |  |  | O=C(NO)c1cnc(NCCN2CCC(CNC3CC3c3ccc(F)cc3)CC2)nc1 (stereo not drawn) [Example 102, 2-((2-(4-(((2-(4-fluorophenyl)cyclopropyl)amino)methyl)piperidin-1-yl)ethyl)amino)-N-hydroxypyrimidine-5-carboxamide TFA Salt] | >99/>99% | >99/>99% | 22 | 75 | 5
19 |  |  | O=C(NO)c1cc2c(s1)CCN(C(=O)CCCN1CCC(CNC3CC3c3ccc(F)cc3)CC1)C2 (stereo not drawn) [Example 106, 5-(4-(4-(((2-(4-fluorophenyl)cyclopropyl)amino)methyl)piperidin-1-yl)butanoyl)-N-hydroxy-4,5,6,7-tetrahydrothieno[3,2-c]pyridine-2-carboxamide TFA Salt] | 92% | 74% | 26 | 35 | 14
20 | > 10000 | 26 | O=C(NO)c1csc(CCCN2CCC(CNC3CC3c3ccccc3)CC2)n1.O=C(O)C(F)(F)F (stereo not drawn) [Example 110, N-hydroxy-2-(3-(4-(((2-phenylcyclopropyl)amino)methyl)piperidin-1-yl)propyl)thiazole-4-carboxamide TFA Salt] | 95% | 88% |  | > 10000 | 
21 | > 10000 | 26 | O=C(NO)c1coc(CCCN2CCC(CNC3CC3c3ccccc3)CC2)n1.O=C(O)C(F)(F)F (stereo not drawn) [Example 113, N-hydroxy-2-(3-(4-(((2-phenylcyclopropyl)amino)methyl)piperidin-1-yl)propyl)oxazole-4-carboxamide TFA Salt] | 76% | 78% |  | > 10000 | 
22 |  |  | Nc1ccccc1NC(=O)c1ccc(CCC(=O)N2CCC(NC3CC3c3ccccc3)CC2)cc1 (stereo not drawn) [Example 133, N-(2-aminophenyl)-4-(3-oxo-3-(4-((2-phenylcyclopropyl)amino)piperidin-1-yl)propyl)benzamide TFA Salt] | 9% | 19% | 40 | > 10000 | 
